Data from paper PMC4577729, “7-(Pyrazol-4-yl)-3H-imidazo[4,5-b]pyridine-based derivatives for kinase inhibition: Co-crystallisation studies with Aurora-A reveal distinct differences in the orientation of the pyrazole N1-substituent” (Bioorganic & Medicinal Chemistry Letters, 2015).
pIC50: −log10 of the molar value. Where “and” joins values, the source holds several entries; their conditions need not be identical. Equal entries are not always repeated.

Assays:
Aurora B = Aurora B (Homo sapiens, UniProt Q96GD4); test: Aurora-B microfluidic kinase assay; conditions: biochemical; mean of two determinations or mean ±SD for n > 2
Excerpt: (§1) As part of our medicinal chemistry programme to discover selective inhibitors of Aurora-A,[12] we introduced the 1-benzyl-1H-pyrazol-4-yl moiety at C7 of the imidazo[4,5-b]pyridine scaffold to provide 7a (Table 1). We previously reported 1,3-dimethyl-1H-pyrazol-4-yl as a preferred substituent at the C2 position of the imidazo[4,5-b]pyridine scaffold[11] and this moiety was therefore incorporated into the design of 7a and analogues presented in this study. […] This in vitro profile prompted us to investigate this C7-pyrazole substituted imidazo[4,5-b]pyridine subseries in more detail. Firstly, we attempted to increase biochemical potency against Aurora-A, and also to improve microsomal stability.
(§2) [17] Aurora-A and Aurora-B IC50 values were determined by using a microfluidic assay which monitors the separation of a phosphorylated product from its substrate, as described in Ref. [12].

[1] = Protein binding in microsomal incubations (MLM); type: in vitro ADME, mouse
Protocol: (§3) For a better understanding of the microsomal stability data, the protein binding for 7a, 7d and 7e in microsomal incubations was measured. The percentage of 7a unbound in MLM and HLM was determined as 6.71 and 4.89, respectively. Compounds 7d and 7e were more highly bound: for 7d the percentage unbound was 0.50 in both MLM and HLM and for 7e was 0.16 and 0.10, respectively. […] The potent cell-based activity prompted us to investigate kinome selectivity profiles for this class of compound by screening 7a and 7d in a 102-kinase panel at a concentration of 1 μM.[20] […] The Gini coefficient for compound 3 was reported as 0.719,[12] and the corresponding value for compound 1 is 0.560. To understand the potential for further improvement, we obtained the crystal structure of 7a bound to Aurora-A[22] (Fig. 3, Table S3, Supplementary data). […] Similar to crystal structures of previous compounds 1, 15 and 16 (Figs. 1 and 2; compounds 51 and 40c in Ref. [10], and compound 21a in Ref. [11], respectively) the N-benzyl substituent on the C7-pyrazole is oriented towards the P-loop, making Van der Waals contacts with Val147 and Gly142 (Fig. 3).

[2] = Mouse liver microsomal stability; type: in vitro ADME; conditions: percentage of compound metabolised after a 30 min incubation, mouse liver microsomes
Protocol: (§4) [18] MLM and HLM microsomal stabilities were determined as described in Ref. [12].

[3] = Protein binding in microsomal incubations (HLM); type: in vitro ADME, human
Protocol: as §3

[4] = Human liver microsomal stability; type: in vitro ADME; conditions: percentage of compound metabolised after a 30 min incubation, human liver microsomes
Protocol: as §4

Aurora A = target: T1, Aurora A (Homo sapiens, UniProt O14965); test: Aurora-A microfluidic kinase assay; type: biochemical; conditions: for pIC50: biochemical, mean of two determinations or mean ±SD for n > 2; for fold more potent on Aurora-A relative to Aurora-B: ratio of biochemical IC50s
T1 sequence (O14965 1-403): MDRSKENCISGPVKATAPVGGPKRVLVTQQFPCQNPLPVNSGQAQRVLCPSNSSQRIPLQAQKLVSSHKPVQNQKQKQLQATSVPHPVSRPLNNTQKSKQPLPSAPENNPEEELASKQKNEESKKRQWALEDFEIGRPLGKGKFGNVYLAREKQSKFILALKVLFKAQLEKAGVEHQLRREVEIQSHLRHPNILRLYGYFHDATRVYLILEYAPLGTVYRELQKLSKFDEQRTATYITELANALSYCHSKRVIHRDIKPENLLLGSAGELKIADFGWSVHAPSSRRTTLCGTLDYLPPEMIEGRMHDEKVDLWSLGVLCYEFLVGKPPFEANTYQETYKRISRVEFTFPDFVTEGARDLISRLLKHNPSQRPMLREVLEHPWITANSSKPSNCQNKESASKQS
Excerpt: as §1, §2

Sequence of Aurora B (Q96GD4 whole entry): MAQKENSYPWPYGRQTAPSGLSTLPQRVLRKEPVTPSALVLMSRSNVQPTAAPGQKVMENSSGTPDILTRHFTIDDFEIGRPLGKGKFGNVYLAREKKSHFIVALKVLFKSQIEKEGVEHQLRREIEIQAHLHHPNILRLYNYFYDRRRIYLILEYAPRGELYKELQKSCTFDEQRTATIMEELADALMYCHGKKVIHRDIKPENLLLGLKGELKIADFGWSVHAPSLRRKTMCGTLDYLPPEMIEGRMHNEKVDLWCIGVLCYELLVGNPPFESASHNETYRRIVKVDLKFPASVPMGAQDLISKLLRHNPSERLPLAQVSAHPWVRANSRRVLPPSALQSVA

Row | pIC50 (Aurora B) | percentage unbound in MLM [1] [%] | MLM % met/30 min [2] | percentage unbound in HLM [3] [%] | HLM % met/30 min [4] | pIC50 (Aurora A) | fold more potent on Aurora-A relative to Aurora-B (Aurora A) [fold] | SMILES
1 | < 5.00 | 0.16 | 31% | 0.10 | 20% | < 5.00 | – | Cc1nn(C)cc1-c1nc2c(-c3cnn(-c4ccc(F)cc4)c3)c(Cl)cnc2[nH]1 [Compound 7e]
2 | 6.45 | – | 98% | – | 82% | 6.90 | – | Cc1nn(C)cc1-c1nc2c(-c3cnn(Cc4ccccc4C(=O)N4CCN(C)CC4)c3)c(Cl)cnc2[nH]1 [Compound 14c]
3 | 6.63 | – | 97% | – | 87% | 7.34 | 5 | Cc1nn(C)cc1-c1nc2c(-c3cnn(Cc4cccc(C(=O)N5CCN(C)CC5)c4)c3)c(Cl)cnc2[nH]1 [Compound 14b]
4 | 6.53 | – | 72/72% | – | 72% and 72/72% | 7.44 | 8 | Cc1nn(C)cc1-c1nc2c(-c3cnn(Cc4cccc(C(=O)N(C)C)c4)c3)c(Cl)cnc2[nH]1 [Compound 14a]
